Measured values: patent US20090117115A1 (priority 2006, published 2009)

What was measured:
[1] = test system: gp120 hydrolysis by salivary IgA and serum IgA; assay type: biochemical, human
[2] = target: gp120 of HIV-1 strain ZA009 (HIV-1, strain ZA009)
[3] = target: gp120 of HIV-1 strain SF162 (HIV-1, strain SF162)
[4] = target: gp120 of HIV-1 strain BR004 (HIV-1, strain BR004)

| Compound | inhibition of gp120 hydrolysis by serum and salivary IgA [1] | IC80, HIV neutralization (% decrease of p24; PHA-stimulated PBMC hosts) [2] [µg/mL] | IC80, HIV neutralization (% decrease of p24; PHA-stimulated PBMC hosts) [3] [µg/mL] | IC80, HIV neutralization (% decrease of p24; PHA-stimulated PBMC hosts) [4] [µg/mL] |
| --- | --- | --- | --- | --- |
| c1cnc2c(c1)ccc1cccnc12 [1,10 phenanthroline] | did not detectably inhibit |  |  |  |
| O=C(O)CN(CCN(CC(=O)O)CC(=O)O)CC(=O)O [EDTA] | did not detectably inhibit |  |  |  |
| NC(=O)CI [iodoacetamide] | did not detectably inhibit |  |  |  |
| MAb b12 (antibody) |  | > 20 | 14.1 | > 20 |
| pepstatin A | did not detectably inhibit |  |  |  |
